Key:
Type in all cases: biochemical
RSK1 = RSK1 (Homo sapiens, UniProt Q15418); experiment: Kinase profiling RSK1
Source text: (§1) Any value less that 25 is considered to be highly significant inhibition.

MLK3 = MLK3 (Homo sapiens, UniProt Q16584); experiment: Kinase profiling MLK3
Source text: as §1

PKBa = PKBa (Homo sapiens, UniProt P31749); experiment: Kinase profiling PKBa
Source text: as §1

CAMKKb = CAMKKb (Homo sapiens, UniProt Q96RR4); experiment: Kinase profiling CAMKKb
Source text: as §1

S6K1 = S6K1 (Homo sapiens, UniProt P23443); experiment: Kinase profiling S6K1
Source text: as §1

JAK2 = JAK2 (Homo sapiens, UniProt O60674); experiment: Kinase profiling JAK2
Source text: as §1

IGF-1R = IGF-1R (Homo sapiens, UniProt P08069); experiment: Kinase profiling IGF-1R
Source text: as §1

CAMK1 = CAMK1 (Homo sapiens, UniProt Q14012); experiment: Kinase profiling CAMK1
Source text: as §1

BTK = BTK (Homo sapiens, UniProt Q06187); experiment: Kinase profiling BTK
Source text: as §1

PKA = PKA (Homo sapiens, UniProt P17612); experiment: Kinase profiling PKA
Source text: as §1

p38a MAPK = p38a MAPK (Homo sapiens, UniProt Q16539); experiment: Kinase profiling p38a MAPK
Source text: as §1

TTK = biological target: T1, TTK (Homo sapiens, UniProt P33981); experiment: Kinase profiling TTK
T1 sequence (P33981 1-857): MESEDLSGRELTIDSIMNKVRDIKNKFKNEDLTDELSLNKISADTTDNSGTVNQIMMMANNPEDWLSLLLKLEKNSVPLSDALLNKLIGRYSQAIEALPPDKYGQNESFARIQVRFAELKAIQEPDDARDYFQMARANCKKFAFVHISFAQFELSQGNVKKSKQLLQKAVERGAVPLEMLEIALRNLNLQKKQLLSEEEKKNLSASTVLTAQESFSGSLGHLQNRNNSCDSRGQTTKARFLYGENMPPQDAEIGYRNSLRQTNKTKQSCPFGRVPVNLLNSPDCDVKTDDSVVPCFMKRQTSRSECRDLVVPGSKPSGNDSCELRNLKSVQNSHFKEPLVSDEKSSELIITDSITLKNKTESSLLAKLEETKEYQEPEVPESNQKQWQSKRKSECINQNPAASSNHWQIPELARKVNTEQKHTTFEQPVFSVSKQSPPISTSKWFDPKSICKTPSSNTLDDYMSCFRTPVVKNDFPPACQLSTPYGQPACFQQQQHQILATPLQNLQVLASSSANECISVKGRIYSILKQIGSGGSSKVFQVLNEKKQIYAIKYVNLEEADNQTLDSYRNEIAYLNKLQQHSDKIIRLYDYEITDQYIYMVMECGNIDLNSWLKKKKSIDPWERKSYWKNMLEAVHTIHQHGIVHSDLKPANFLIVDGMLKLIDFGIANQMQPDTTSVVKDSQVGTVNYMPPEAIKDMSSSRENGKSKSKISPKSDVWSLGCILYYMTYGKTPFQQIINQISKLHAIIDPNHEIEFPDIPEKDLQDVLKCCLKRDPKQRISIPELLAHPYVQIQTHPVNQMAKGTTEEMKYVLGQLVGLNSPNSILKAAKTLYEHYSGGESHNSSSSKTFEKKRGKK
Source text: as §1

[1] = 100 micromolar inhibitor concentration, 100 is no change
[2] = 100 micromolar inhibitor, 100 = no change

Sequence of JAK2 (O60674 whole entry, species assumed): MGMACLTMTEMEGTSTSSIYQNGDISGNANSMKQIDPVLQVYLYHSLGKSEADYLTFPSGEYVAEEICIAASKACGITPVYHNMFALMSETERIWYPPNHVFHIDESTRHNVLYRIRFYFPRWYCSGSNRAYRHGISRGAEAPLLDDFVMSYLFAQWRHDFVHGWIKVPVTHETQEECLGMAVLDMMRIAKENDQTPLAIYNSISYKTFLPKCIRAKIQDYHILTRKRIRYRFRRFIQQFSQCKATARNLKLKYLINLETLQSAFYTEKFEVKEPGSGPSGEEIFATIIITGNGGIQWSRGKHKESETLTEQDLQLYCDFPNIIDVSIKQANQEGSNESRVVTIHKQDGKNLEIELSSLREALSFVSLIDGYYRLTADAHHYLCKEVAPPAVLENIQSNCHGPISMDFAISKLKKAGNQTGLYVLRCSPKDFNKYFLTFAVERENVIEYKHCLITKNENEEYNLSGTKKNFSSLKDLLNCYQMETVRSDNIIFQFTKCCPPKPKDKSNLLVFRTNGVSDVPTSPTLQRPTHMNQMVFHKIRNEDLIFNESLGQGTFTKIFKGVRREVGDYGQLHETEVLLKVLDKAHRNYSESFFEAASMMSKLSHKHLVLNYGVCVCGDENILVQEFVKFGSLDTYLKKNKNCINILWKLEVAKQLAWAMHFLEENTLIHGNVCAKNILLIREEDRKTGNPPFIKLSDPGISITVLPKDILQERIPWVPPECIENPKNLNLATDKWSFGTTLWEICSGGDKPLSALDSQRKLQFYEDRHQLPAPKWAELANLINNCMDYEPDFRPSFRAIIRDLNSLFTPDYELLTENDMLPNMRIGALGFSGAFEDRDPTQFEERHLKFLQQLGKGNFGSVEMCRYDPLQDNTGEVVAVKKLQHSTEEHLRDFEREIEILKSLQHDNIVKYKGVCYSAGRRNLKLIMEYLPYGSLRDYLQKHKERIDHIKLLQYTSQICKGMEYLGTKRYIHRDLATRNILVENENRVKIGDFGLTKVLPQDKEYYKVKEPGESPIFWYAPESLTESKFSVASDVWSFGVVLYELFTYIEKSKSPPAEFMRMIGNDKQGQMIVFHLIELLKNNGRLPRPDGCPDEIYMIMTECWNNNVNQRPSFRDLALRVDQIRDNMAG
Sequence of CAMK1 (Q14012 whole entry, species assumed): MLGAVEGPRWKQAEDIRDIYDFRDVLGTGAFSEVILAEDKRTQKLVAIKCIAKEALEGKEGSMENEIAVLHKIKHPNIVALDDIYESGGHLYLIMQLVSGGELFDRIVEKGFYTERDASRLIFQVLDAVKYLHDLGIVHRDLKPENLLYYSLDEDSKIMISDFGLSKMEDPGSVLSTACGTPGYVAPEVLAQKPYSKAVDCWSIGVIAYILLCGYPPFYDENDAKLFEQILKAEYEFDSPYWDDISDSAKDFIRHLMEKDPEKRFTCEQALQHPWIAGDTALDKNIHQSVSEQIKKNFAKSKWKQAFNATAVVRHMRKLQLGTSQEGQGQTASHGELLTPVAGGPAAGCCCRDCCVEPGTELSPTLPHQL
Sequence of MLK3 (Q16584 whole entry, species assumed): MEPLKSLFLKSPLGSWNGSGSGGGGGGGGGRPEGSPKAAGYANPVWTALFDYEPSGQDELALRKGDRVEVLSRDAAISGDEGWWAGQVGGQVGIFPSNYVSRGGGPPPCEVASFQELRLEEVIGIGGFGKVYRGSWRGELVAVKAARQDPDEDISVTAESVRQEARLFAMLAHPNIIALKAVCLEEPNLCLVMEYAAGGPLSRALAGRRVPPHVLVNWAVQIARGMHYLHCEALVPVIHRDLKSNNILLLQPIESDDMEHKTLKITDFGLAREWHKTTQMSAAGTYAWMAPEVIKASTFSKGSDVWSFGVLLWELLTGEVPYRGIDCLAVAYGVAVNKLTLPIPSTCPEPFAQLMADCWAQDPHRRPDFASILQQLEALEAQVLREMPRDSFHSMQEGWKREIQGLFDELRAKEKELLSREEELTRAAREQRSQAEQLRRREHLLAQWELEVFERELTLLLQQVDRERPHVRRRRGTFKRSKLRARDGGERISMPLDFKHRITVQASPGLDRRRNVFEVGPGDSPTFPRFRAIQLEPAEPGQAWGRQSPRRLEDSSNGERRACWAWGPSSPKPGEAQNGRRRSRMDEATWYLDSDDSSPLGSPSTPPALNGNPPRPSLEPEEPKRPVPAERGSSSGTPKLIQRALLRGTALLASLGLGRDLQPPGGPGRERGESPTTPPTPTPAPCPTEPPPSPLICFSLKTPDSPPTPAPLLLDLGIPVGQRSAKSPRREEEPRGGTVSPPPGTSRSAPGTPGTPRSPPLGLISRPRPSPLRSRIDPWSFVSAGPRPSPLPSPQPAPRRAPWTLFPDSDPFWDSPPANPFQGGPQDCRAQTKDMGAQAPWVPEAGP
Sequence of p38a MAPK (Q16539 whole entry): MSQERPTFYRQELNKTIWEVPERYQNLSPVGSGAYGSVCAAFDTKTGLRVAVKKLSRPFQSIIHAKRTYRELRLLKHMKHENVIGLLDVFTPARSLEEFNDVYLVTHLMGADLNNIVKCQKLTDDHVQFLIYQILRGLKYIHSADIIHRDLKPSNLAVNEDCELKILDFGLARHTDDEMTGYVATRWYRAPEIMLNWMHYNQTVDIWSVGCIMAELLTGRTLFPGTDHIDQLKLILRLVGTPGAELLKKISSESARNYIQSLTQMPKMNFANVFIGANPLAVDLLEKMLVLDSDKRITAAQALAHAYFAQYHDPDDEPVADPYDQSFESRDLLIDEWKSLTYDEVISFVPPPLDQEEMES
Sequence of RSK1 (Q15418 whole entry, species assumed): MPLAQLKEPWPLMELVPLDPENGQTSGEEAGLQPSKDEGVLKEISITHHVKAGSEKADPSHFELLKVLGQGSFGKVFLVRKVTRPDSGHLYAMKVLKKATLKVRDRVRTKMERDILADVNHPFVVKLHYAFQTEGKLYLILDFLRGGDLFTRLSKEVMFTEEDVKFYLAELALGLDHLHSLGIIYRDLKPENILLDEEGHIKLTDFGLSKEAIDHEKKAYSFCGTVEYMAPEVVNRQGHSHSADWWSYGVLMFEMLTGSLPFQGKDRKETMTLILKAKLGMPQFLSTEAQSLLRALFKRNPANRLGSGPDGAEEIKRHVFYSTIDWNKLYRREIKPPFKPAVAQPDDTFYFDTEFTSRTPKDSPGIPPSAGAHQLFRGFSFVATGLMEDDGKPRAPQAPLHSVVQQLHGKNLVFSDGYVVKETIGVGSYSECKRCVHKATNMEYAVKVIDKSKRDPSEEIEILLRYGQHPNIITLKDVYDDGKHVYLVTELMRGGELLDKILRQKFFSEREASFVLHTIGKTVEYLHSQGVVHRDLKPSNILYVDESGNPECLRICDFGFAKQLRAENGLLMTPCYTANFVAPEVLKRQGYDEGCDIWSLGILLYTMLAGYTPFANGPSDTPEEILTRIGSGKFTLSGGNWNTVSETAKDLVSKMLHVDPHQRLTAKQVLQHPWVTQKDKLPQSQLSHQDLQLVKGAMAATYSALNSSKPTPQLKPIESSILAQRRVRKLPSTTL
Sequence of S6K1 (P23443 whole entry, species assumed): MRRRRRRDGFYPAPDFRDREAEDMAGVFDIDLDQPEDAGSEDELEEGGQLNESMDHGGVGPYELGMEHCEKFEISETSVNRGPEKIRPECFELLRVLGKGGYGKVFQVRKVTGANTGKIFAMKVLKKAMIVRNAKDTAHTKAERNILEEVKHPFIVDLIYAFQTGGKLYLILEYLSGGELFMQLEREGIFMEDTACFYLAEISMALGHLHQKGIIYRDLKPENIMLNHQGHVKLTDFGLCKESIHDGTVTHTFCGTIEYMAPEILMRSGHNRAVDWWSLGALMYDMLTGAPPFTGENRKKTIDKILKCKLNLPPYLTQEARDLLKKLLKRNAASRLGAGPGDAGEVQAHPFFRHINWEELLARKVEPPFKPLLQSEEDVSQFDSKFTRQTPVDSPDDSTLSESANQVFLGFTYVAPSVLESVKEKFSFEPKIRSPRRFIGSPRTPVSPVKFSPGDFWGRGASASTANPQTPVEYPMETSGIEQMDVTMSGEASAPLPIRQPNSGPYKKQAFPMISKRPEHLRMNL
Sequence of CAMKKb (Q96RR4 whole entry, species assumed): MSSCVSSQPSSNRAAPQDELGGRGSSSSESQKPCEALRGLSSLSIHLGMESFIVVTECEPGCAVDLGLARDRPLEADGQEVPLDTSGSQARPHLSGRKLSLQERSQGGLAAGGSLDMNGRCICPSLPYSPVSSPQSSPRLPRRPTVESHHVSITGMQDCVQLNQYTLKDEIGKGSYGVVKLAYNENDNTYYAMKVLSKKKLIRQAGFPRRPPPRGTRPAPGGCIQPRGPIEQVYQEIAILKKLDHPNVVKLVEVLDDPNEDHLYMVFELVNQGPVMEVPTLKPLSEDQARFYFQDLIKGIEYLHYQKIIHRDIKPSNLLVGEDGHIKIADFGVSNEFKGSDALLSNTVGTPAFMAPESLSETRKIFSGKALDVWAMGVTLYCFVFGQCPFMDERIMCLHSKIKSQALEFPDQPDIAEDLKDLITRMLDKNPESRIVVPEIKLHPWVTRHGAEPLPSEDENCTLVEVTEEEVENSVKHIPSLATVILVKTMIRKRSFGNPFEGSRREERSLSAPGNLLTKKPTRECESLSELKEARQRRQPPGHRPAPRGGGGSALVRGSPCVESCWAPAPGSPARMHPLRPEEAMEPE
Sequence of PKBa (P31749 whole entry): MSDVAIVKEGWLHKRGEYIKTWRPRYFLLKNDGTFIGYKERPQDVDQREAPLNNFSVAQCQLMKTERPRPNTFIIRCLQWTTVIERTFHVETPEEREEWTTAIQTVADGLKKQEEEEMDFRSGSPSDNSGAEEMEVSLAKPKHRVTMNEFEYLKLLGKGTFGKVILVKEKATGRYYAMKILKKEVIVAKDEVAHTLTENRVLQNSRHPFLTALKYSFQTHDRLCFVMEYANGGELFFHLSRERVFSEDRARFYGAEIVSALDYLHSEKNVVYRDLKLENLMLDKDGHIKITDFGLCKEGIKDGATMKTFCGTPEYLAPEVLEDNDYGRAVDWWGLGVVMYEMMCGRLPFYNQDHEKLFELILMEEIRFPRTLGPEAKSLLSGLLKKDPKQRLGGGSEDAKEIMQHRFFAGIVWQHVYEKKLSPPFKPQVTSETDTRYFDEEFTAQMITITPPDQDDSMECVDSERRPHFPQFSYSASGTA

SMILES	residual kinase activity, RSK1 (RSK1; [1])	residual kinase activity, MLK3 (MLK3; [1])	residual kinase activity, PKBa (PKBa; [1])	residual kinase activity, CAMKKb (CAMKKb; [1])	residual kinase activity, S6K1 (S6K1; [1])	residual kinase activity, JAK2 (JAK2; [1])	residual kinase activity, IGF-1R (IGF-1R; [1])	residual kinase activity, CAMK1 (CAMK1; [1])	residual kinase activity, BTK (BTK; [1])	residual kinase activity, PKA (PKA; [1])	residual kinase activity, p38a MAPK (p38a MAPK; [1])	residual kinase activity, TTK (TTK; [1])	further results
COc1ccc2sc(NC(=O)c3ccccc3)nc2c1 [Compound 03-95]	64	40	80	54	77	86	100	76	75	83	82	71	–
CC(=O)Nc1nc2ccc([N+](=O)[O-])cc2s1 [Compound 13-10]	–	–	–	–	–	–	–	–	–	–	–	–	remaining activity at 100 µM (RSK1; 100 micromolar inhibitor concentration, 100 is no change, read-out: residual kinase activity, RSK1): 89%; remaining activity at 100 µM (MLK3; 100 micromolar inhibitor concentration, 100 is no change, read-out: residual kinase activity, MLK3): 54%; remaining activity at 100 µM (PKBa; read-out: residual kinase activity, PKBa): 101%; remaining activity at 100 µM (CAMKKb; 100 micromolar inhibitor concentration, 100 is no change, read-out: residual kinase activity, CAMKKb): 73%; remaining activity at 100 µM (S6K1; 100 micromolar inhibitor concentration, 100 is no change, read-out: residual kinase activity, S6K1): 65%; remaining activity at 100 µM (JAK2; 100 micromolar inhibitor concentration, 100 is no change, read-out: residual kinase activity, JAK2): 91%; remaining activity at 100 µM (IGF-1R; 100 micromolar inhibitor concentration, 100 is no change, read-out: residual kinase activity, IGF-1R): 91%; remaining activity at 100 µM (CAMK1; 100 micromolar inhibitor concentration, 100 is no change, read-out: residual kinase activity, CAMK1): 84%; remaining activity at 100 µM (BTK; 100 micromolar inhibitor concentration, 100 is no change, read-out: residual kinase activity, BTK): 96%; remaining activity at 100 µM (PKA; 100 micromolar inhibitor concentration, 100 is no change, read-out: residual kinase activity, PKA): 99%; remaining activity at 100 µM (p38a MAPK; 100 micromolar inhibitor concentration, 100 is no change, read-out: residual kinase activity, p38a MAPK): 103%; remaining activity at 100 µM (TTK; 100 micromolar inhibitor concentration, 100 is no change, read-out: residual kinase activity, TTK): 55%
O=C(Nc1nc2ccc(C(F)(F)F)cc2s1)c1ccccc1 [Compound 03-99]	92	72	91	86	86	87	85	84	79	96	86	32	–
COc1ccc2nc(C(=O)Nc3ccccc3)sc2c1 [Compound 13-03]	–	–	–	–	–	–	–	–	–	–	–	–	residual kinase activity, RSK1 (RSK1; [2]): 77; residual kinase activity, MLK3 (MLK3; [2]): 89; residual kinase activity, PKBa (PKBa; [2]): 106; residual kinase activity, CAMKKb (CAMKKb; [2]): 91; residual kinase activity, S6K1 (S6K1; [2]): 90; residual kinase activity, JAK2 (JAK2; [2]): 93; residual kinase activity, IGF-1R (IGF-1R; [2]): 104; residual kinase activity, CAMK1 (CAMK1; [2]): 94; residual kinase activity, BTK (BTK; [2]): 31; residual kinase activity, PKA (PKA; [2]): 97; residual kinase activity, p38a MAPK (p38a MAPK; [2]): 103; residual kinase activity, TTK (TTK; [2]): 108
COc1ccc2nc(NC(=O)c3ccccc3)sc2c1 [Compound 03-98]	74	20	103	45	76	81	104	68	56	90	86	18	–
N#Cc1ccc2nc(NC(=O)c3ccccc3)sc2c1 [Compound 03-106]	96	56	67	67	78	87	131	69	49	91	60	42	–
